Structures can show the parent of a compound that is named as a salt. Non-standard residues stand in square brackets, D forms with d. Residues, ends and D or L forms follow the SMILES beside them. pGlu = O=C1CC[CH](C(=O)O)N1
Legend:
SGLT1 = molecular target: T1, SGLT1 (Homo sapiens, UniProt P13866); assay: SGLT1 inhibition assay for validation of screening hits and similar compounds (1‐NBD‐glucose uptake, CHO‐hSGLT1 cells); format: cell-based; parameters: activity: dose or concentration left out as unconfirmed; details: for remaining activity at 5 µM / remaining activity at 50 µM: 0.5 h, concentration not given, read-out: NORMALIZED SGLT1 ACTIVITY (%); for remaining activity at 5 µM / remaining activity at 50 µM / activity: mean; for activity: compound, normalized 1-NBD-glucose uptake, CHO-hSGLT1 cells; for inhibition at 50 µM / SGLT1 inhibition: mean inhibition with 50 μmol/L inhibitor; for inhibition at 50 µM: read-out: SGLT1 inhibition; for SGLT1/2 inhibition stated in words: SGLT1 and/or SGLT2, discussion statements
T1 sequence (P13866 1-664): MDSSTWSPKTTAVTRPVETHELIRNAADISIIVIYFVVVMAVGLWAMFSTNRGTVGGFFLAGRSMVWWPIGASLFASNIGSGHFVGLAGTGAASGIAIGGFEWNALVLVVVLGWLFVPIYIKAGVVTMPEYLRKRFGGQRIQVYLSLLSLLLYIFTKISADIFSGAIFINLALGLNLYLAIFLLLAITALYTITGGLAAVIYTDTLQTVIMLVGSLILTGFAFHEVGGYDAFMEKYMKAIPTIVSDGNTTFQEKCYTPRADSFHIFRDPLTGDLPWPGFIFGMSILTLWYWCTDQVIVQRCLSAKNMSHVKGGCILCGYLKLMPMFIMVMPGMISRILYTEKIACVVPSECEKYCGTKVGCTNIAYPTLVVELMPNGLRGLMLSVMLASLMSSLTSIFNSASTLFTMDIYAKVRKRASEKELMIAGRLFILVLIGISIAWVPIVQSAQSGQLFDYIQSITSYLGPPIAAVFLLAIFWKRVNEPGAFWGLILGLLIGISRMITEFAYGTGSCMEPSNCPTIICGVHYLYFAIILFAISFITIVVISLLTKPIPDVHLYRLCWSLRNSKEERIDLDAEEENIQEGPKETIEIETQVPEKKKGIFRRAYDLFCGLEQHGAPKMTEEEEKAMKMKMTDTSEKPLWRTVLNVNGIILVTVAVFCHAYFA

hSGLT2 = molecular target: T2, hSGLT2 (Homo sapiens, UniProt P31639); assay: SGLT2 inhibition assay for validation of screening hits and similar compounds (1‐NBD‐glucose uptake, CHO‐hSGLT2 cells); format: cell-based; parameters: activity: dose or concentration left out as unconfirmed; details: for remaining activity at 5 µM / remaining activity at 50 µM: 0.5 h, concentration not given, read-out: NORMALIZED SGLT2 ACTIVITY (%); for remaining activity at 5 µM / remaining activity at 50 µM / activity: mean; for SGLT2/SGLT1 ACTIVITY RATIO 5 uM Mean: ratio of normalized SGLT2 to SGLT1 activity at 5 uM; for activity: compound, normalized 1-NBD-glucose uptake, CHO-hSGLT2 cells; for SGLT2/SGLT1 ACTIVITY RATIO, first concentration / SGLT2/SGLT1 ACTIVITY RATIO, second concentration: ratio of normalized SGLT2 to SGLT1 activity
T2 sequence (P31639 1-672): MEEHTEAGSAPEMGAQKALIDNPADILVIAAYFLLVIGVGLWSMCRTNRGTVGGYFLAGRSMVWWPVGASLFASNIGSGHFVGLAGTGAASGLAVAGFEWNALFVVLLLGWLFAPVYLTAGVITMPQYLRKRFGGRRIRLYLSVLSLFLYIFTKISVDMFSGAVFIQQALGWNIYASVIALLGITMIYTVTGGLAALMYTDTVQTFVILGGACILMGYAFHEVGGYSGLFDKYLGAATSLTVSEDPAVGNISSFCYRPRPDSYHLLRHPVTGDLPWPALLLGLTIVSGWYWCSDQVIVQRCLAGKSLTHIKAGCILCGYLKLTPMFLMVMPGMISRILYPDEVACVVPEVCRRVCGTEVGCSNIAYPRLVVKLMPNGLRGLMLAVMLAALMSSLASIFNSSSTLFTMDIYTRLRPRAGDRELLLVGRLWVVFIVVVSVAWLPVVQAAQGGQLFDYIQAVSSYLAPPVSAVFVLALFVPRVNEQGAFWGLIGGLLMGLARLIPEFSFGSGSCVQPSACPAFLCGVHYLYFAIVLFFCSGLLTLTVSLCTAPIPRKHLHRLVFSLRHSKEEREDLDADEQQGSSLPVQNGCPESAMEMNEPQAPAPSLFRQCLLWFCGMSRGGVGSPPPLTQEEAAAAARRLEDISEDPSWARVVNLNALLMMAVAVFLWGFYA

[1] = mean inhibition with 50 μmol/L inhibitor

Structure (SMILES)	remaining activity at 5 µM (SGLT1) [%]	remaining activity at 50 µM (SGLT1) [%]	remaining activity at 5 µM (hSGLT2) [%]	remaining activity at 50 µM (hSGLT2) [%]	further results
CN1CCN2c3ncccc3Cc3ccccc3C2C1 (centres unmarked) [Mirtazapine]	114	105	113	108	
Oc1c(I)cc(I)c2cccnc12	109	106	107	107	
CN(C)CCOC(C)(c1ccccc1)c1ccccc1 [Moxastine HCl]					SGLT2/SGLT1 ACTIVITY RATIO 5 uM Mean (hSGLT2): 0.9
CCCNC(C)C(=O)Nc1ccccc1C (centres unmarked) [Prilocaine]	95	86	89	76	
Cc1cc(C)c(NC(=O)C2CCCCN2C2CCCCC2)c(C)c1 (centres unmarked)	92	58	81	52	
CN(C)CCOC(c1ccc(Cl)cc1)c1ccccn1 (centres unmarked) [Carbinoxamine]					activity (SGLT1): 105%; activity (hSGLT2): 100%; SGLT2/SGLT1 ACTIVITY RATIO 5 uM Mean (hSGLT2): 1.0
C1CCN2C[C@H]3C[C@H](CN4CCCC[C@@H]34)[C@H]2C1 [(+)-Sparteine]					SGLT2/SGLT1 ACTIVITY RATIO, first concentration (hSGLT2): 1.0; SGLT2/SGLT1 ACTIVITY RATIO, second concentration (hSGLT2): 1.0
COc1cc2oc(=O)ccc2cc1C[C@@H](O)C(C)(C)O [Peucedanol]					activity (SGLT1): 100%; activity (hSGLT2): 95%
CCN(CC)CC(=O)Nc1c(C)cccc1C [Lidocaine]	90	82	90	77	
Oc1c(I)cc(Cl)c2cccnc12 [Clioquinol, 5-Chloro-7-iodo-8-quinolinol]	107	84	107	92	
COc1cc(O)c2c(=O)c(-c3ccc(OC4OC(CO)C(O)C(O)C4O)cc3)coc2c1 (centres unmarked) [Prunetin‐4‐p‐galactoside]					SGLT2/SGLT1‐50μmol/L (ratio of SGLT2 to SGLT1 activities with 50 μmol/L inhibitor) (SGLT1): 2.3; inhibition at 50 µM (SGLT1): 62%; inhibition at 50 µM (hSGLT2; [1]): 12%
NC(=O)C1CCCN1C(=O)C(CCC(=O)O)NC(=O)C1CCC(=O)N1 (stereo not drawn) [pGlu-Glu-Pro-Amide] ([pGlu]-Glu-Pro-NH2; configuration not given here)					SGLT2/SGLT1 ACTIVITY RATIO, first concentration (hSGLT2): 1.0; SGLT2/SGLT1 ACTIVITY RATIO, second concentration (hSGLT2): 1.0
CCN(CC)CCOC(=O)C1(c2ccccc2)CCCC1 [Caramiphen, reference compound]					SGLT2/SGLT1‐50μmol/L (ratio of SGLT2 to SGLT1 activities with 50 μmol/L inhibitor) (SGLT1): 0.6; inhibition at 50 µM (SGLT1): 33%; inhibition at 50 µM (hSGLT2; [1]): 58%
CN(C)CCCN1c2ccccc2CCc2ccccc21 [imipramine, reference compound]					SGLT2/SGLT1‐50μmol/L (ratio of SGLT2 to SGLT1 activities with 50 μmol/L inhibitor) (SGLT1): 0.4; inhibition at 50 µM (SGLT1): 24%
C=CC(C)(O)CC/C=C(\C)C(=O)OC1C(O)C(CO)OC(OC(=O)C23CCC(C)(C)CC2C2=CCC4C5(C)CCC(OC6OC(COC7OCC(OC(C)=O)C(O)C7OC7OC(COC(C)=O)C(O)C(O)C7O)C(O)C(O)C6O)C(C)(C)C5CCC4(C)C2(C)C(O)C3O)C1OC1OCC(OC2OCC(O)C(OC3OCC(O)C(O)C3O)C2O)C(O)C1O (centres unmarked)	112	54	111	71	
CN1CCCCC1c1ccc(-c2cccnc2)nc1 (centres unmarked) [Anabasamine]	114	100	103	91	
OC(CCN1CCCC1)(c1ccccc1)C1CCCCC1 (centres unmarked) [procyclidine, reference compound]					SGLT1/2 inhibition stated in words (SGLT1): novel SGLT1/2 inhibitors
Clc1ccc(C2(Cn3cncn3)OCCO2)c(Cl)c1 [Azaconazole]	111	107	109	104	
CC1(C)Oc2ccc3ccc(=O)oc3c2[C@H](O)[C@@H]1O (relative stereo) [cis‐khellactone]					SGLT1 inhibition (SGLT1): no SGLT inhibition; SGLT2 inhibition (hSGLT2; [1]): no SGLT inhibition

Structure (SMILES)	remaining activity at 5 µM (SGLT1) [%]	remaining activity at 50 µM (SGLT1) [%]	remaining activity at 5 µM (hSGLT2) [%]	remaining activity at 50 µM (hSGLT2) [%]	further results
Fc1ccc(-c2noc([C@@H]3CCCN3Cc3ccccc3F)n2)nc1	125	105	110	91	
Oc1ccc([C@H]2Oc3cc(O)cc4c3[C@@H]2c2cc(O)cc3c2[C@@H](c2cc(O)cc5c2[C@@H]4[C@H](c2ccc(O)cc2)O5)[C@H](c2ccc(O)cc2)O3)cc1 [a-Viniferin]	96	102	104	109	
C/C=C(/C)C(=O)O[C@H]1C[C@@](C)(O)C(=O)[C@@H](OC(=O)/C(C)=C\C)[C@@]2(C)CC[C@@](O)(C(C)C)[C@H]12 [Laserpitin]					SGLT2/SGLT1 ACTIVITY RATIO, first concentration (hSGLT2): 1.0; SGLT2/SGLT1 ACTIVITY RATIO, second concentration (hSGLT2): 1.0
c1ccc(CO[C@H]2COCCN(Cc3ccccn3)C2)cc1					activity (SGLT1): 120%; activity (hSGLT2): 110%; SGLT2/SGLT1 ACTIVITY RATIO 5 uM Mean (hSGLT2): 0.9
Cc1cccc(C)c1NC(=O)C1CCCCN1C (centres unmarked) [mepivacaine, reference compound]					inhibition at 50 µM (SGLT1): 11%
CCCCN1CCCCC1C(=O)Nc1c(C)cc(C)cc1C (centres unmarked)	80	44	73	50	
CCCCCCCCCCCCN(C)C [Dimethyldodecylamine]					SGLT2/SGLT1 ACTIVITY RATIO, first concentration (hSGLT2): 0.9; SGLT2/SGLT1 ACTIVITY RATIO, second concentration (hSGLT2): 1.0
Cn1c(CO[C@H]2CN(Cc3ccncc3F)C[C@H]2F)nc2ccccc21	115	115	99	99	
Cc1nc(-c2cccs2)cc([C@H]2CN3CC[C@H]2C[C@@H]3CO)n1	120	115	110	103	
CN(C)CCCN1c2ccccc2CCc2ccccc21 [Imipramine HCl]					SGLT2/SGLT1 ACTIVITY RATIO 5 uM Mean (hSGLT2): 0.743
CC(=O)OC(C)(C)C1Cc2cc3ccc(=O)oc3cc2O1 (centres unmarked)					activity (SGLT1): 106%; activity (hSGLT2): 101%; SGLT2/SGLT1 ACTIVITY RATIO 5 uM Mean (hSGLT2): 1.0
CN1CCC(N2CC[C@H](c3nc4cc(Cl)ccc4o3)C2)CC1	116	115	101	85	
C/C=C(\C)C(=O)O[C@H]1[C@@H](OC(C)=O)c2c(ccc3ccc(=O)oc23)OC1(C)C [(+)‐praeruptorin A]					SGLT2/SGLT1‐50μmol/L (ratio of SGLT2 to SGLT1 activities with 50 μmol/L inhibitor) (SGLT1): 2
Clc1ccc(C(OCCN2CCCCC2)c2ccccc2)cc1 (centres unmarked) [Cloperastine, cloperastine, reference compound]					IC50 (SGLT1; 1‐NBD‐glucose uptake, CHO‐hSGLT1, mean of n biological replicates, or individual measurements where n=2, read-out: SGLT1‐IC50 Mean): 9 µM; SGLT1/2 inhibition stated in words (SGLT1): novel SGLT1/2 inhibitors; inhibition at 50 µM (SGLT1): 72%; IC50 (hSGLT2; 1‐NBD‐glucose uptake, CHO‐hSGLT2, mean of n biological replicates, or individual measurements where n=2, read-out: SGLT2‐IC50 Mean): 9 µM
CNCCCN1c2ccccc2CCc2ccccc21 [desipramine, reference compound]					SGLT2/SGLT1‐50μmol/L (ratio of SGLT2 to SGLT1 activities with 50 μmol/L inhibitor) (SGLT1): 0.5; SGLT1 inhibition (SGLT1): no inhibition
CC(=O)OC1C(OC(=O)C2(C)OC2C)c2c(ccc3ccc(=O)oc23)OC1(C)C (centres unmarked)					activity (SGLT1): 102%; activity (hSGLT2): 90%; SGLT2/SGLT1 ACTIVITY RATIO 5 uM Mean (hSGLT2): 0.9
OC(CCN1CCCCC1)(c1ccccc1)C1CC2C=CC1C2 (centres unmarked) [biperiden, reference compound]					SGLT1/2 inhibition stated in words (SGLT1): novel SGLT1/2 inhibitors
C1CCN2C[C@@H]3C[C@@H](CN4CCCC[C@@H]34)[C@H]2C1 [(-)-Sparteine]					SGLT2/SGLT1 ACTIVITY RATIO, first concentration (hSGLT2): 1.0; SGLT2/SGLT1 ACTIVITY RATIO, second concentration (hSGLT2): 0.9
CC=C(C)C(=O)O[C@H]1[C@@H](OC(C)=O)c2c(ccc3ccc(=O)oc23)OC1(C)C [praeruptorin C]					activity (SGLT1): 90%

Reference: publication PMC6664820, “Novel natural and synthetic inhibitors of solute carriers SGLT1 and SGLT2” (Pharmacology Research & Perspectives, 2019)
